# Laboratory results as given in patent publication EP4692321A1, “CELL STRUCTURE PRODUCTION METHOD” (Toppan Holdings Inc., priority 2023, dated 2024).
# What was measured:
# [1] = test system: vascularized liver model; assay: Cell viability by ATP assay (CellTiter-Glo 3D) after monocrotaline (Test Example 5); type: cell-based, human; conditions: vascularized liver model compared to other models, 0 to 600 µM added on Day 7, 7 further days
# Experimental: (§1) Except for using a 24-transwell as the culture vessel, culturing a cell mixture of 1.95 × 10^4 human hepatocytes (PXB Cells (registered trademark); manufactured by PhoenixBio Co., Ltd.) and 3.0 × 10^3 immortalized sinusoidal endothelial cells (SEC; manufactured by Sciencell, Product No. 5000) using the HCM medium including 50 ng/mL VEGF-A and 50 ng/mL VEGF-C as vascular development factors and 1 v/v% vascular maintenance factor cocktail,culturing a cell mixture of human hepatocytes (PXB Cells (registered trademark); manufactured by PhoenixBio Co., Ltd.), 7.5 × 10^3 immortalized sinusoidal endothelial cells (SEC, manufactured by Sciencell, Product No. "5000"), and 3.0 × 10^3 hepatic stellate cells (LX2; manufactured by Sigma-Aldrich) using the HCM medium including 1 v/v% vascular maintenance factor cocktail, orculturing a cell mixture of 2.1 × 10^3 immortalized sinusoidal endothelial cells (SEC; manufactured by Sciencell, Product No. "5000") and 9.0 × 10^3 hepatic stellate cells (LX2; manufactured by Sigma-Aldrich) using the HCM medium including 1 v/v% vascular maintenance factor cocktail, cell mixtures were cultured and cell structures were obtained in the same manner as in Test Example 4. […]
# In addition, the cell viability of the similarly produced cell structure was also quantified by an ATP assay. […]
# [2] = test system: vascularized liver model; assay: Vascular toxicity: CD31 immunostaining and blood vessel length after monocrotaline (Test Example 5); type: cell-based, human; conditions: vascularized liver model compared to other models; 0 to 600 µM added on Day 7, 7 further days; relative to no monocrotaline = 100%
# Experimental: as §1
# In addition, vascular structures were extracted from the microscopic images shown in FIGS. 8 and 9, and the blood vessel lengths of the cell structures were measured. […]
compound,measurement,setting,value
C[C@H]1C(=O)O[C@@H]2CCN3CC=C(COC(=O)[C@](C)(O)[C@]1(C)O)[C@H]23 [monocrotaline],cell viability,[1],concentration-dependent decrease in cell viability
same,blood vessel length,[2],notably shorter blood vessel length
